Source: paper PMC7312539, “Homology Modeling of the Human P-glycoprotein (ABCB1) and Insights into Ligand Binding through Molecular Docking Studies” (International Journal of Molecular Sciences, 2020)

Biological target: efflux pump P-gp (Homo sapiens, UniProt P08183)
Conditions: Figure 11; for Effect on the rate of excretion of rhodamine 123 (R123) out of Caco-2 cells / interaction with P-gp: Caco-2 cells loaded with 10 μM R123, compared to control DMSO
Procedure: Results are expressed as percentage compared to the rate of excretion of R123 in the absence of drug (i.e control DMSO). Error bars: SD; verapamil: positive control; diazepam: negative control.
Shortly, Caco-2 cells were washed with HEPES-buffered Ringer’s (RH) solution (NaCl 150 mM, KCl 5.2 mM, CaCl2 2.2 mM, MgCl2 0.2 mM, NaHCO3 6 mM, Glucose 2.8 mM, HEPES 5 mM, water for injection), pH = 7.4 and incubated for 120 min with 10 μM R123. After incubation, cells were washed with RH and incubated with test compounds for one hour during which the rate out (Kout) of R123 (λex = 485 nm and λem = 538 nm) was monitored every 2 minutes with a microplate fluorescence reader (Fluoroskan Ascent FL, Thermo Labsystems, Issy-Les-Moulineaux, France) at 37 °C, after which the cell viability was assessed using MTT cytotoxicity assay kit. Rhodamine Kout was calculated as the slope of the curve of the cumulative R123 fluorescence against the time. Verapamil was used as a positive control and diazepam as negative control.

Sequence of efflux pump P-gp (P08183 whole entry): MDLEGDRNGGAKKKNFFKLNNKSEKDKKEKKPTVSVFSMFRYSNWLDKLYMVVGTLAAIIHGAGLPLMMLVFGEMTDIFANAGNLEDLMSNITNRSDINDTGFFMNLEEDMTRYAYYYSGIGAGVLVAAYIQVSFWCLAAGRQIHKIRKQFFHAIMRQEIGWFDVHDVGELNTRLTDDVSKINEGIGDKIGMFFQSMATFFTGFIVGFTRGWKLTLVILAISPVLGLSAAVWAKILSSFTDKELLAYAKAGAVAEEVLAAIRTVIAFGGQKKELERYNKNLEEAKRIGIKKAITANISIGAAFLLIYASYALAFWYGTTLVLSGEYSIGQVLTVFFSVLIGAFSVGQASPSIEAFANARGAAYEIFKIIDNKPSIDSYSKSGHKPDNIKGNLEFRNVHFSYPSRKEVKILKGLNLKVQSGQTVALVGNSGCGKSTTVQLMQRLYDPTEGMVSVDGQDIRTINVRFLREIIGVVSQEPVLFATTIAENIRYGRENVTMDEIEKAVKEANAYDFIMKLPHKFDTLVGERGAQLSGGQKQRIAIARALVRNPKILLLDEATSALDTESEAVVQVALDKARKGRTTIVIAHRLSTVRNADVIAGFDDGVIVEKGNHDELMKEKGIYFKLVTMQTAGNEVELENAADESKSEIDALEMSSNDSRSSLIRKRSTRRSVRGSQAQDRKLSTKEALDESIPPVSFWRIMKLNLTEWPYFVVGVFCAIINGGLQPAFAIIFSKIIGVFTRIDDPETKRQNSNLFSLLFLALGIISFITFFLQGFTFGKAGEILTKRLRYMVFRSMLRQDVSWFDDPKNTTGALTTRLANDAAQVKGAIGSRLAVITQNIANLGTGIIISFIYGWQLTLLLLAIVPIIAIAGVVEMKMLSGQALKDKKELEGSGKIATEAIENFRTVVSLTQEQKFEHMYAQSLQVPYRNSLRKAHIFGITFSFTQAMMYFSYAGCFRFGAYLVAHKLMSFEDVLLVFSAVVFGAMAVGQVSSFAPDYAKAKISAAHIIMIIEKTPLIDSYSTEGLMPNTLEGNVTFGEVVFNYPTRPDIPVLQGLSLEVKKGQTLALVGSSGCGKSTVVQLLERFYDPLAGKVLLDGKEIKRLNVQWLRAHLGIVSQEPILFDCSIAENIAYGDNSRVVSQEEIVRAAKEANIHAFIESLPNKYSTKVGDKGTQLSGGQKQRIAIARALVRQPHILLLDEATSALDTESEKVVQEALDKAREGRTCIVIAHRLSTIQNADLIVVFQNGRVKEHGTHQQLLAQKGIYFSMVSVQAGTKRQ

| SMILES | Effect on the rate of excretion of rhodamine 123 (R123) out of Caco-2 cells / interaction with P-gp | Interference with the P-gp mediated efflux of R123 out of Caco-2 cells (compound at 50 µM, Caco-2 cells) |
| --- | --- | --- |
| NCCC(O)(P(=O)(O)O)P(=O)(O)O [APD, pamidronate] | did not show any interaction | – |
| CS(=O)(=O)OCCCCOS(C)(=O)=O [BU, busulfan] | not transported by P-gp | – |
| C[n+]1ccc(-c2cc[n+](C)cc2)cc1 [PQ, paraquat] | – | do not interfere |
| CCCC(CCC)C(=O)O [VPA, valproic acid] | not transported by P-gp | – |
